Assay results published in patent publication US8829007B2 (priority 2009, dated 2014).
Where two headings read alike, the source gives them in different places.

Experiments:
[1] = test system: A/PR/8/34 influenza virus; test: microbe, parasite or virus in culture; type: cell-based
[2] = test system: influenza A virus (A/PR/8/34); test: microbe, parasite or virus in culture; type: cell-based; details: Influenza A virus, PR/8, MDCK
[3] = Influenza A virus, PR/8, MDCK, bDNA assay, A/PR/8/34 influenza virus replication in MDCK cells, class symbols, read-out: EC50 (mean all)
[4] = Influenza A virus, PR/8, MDCK, MDCK cells infected with A/PR/8/34, bDNA viral RNA, read-out: EC50 (mean all)
[5] = mean all, A/PR/8/34 infected MDCK cells, CPE assay, read-out: IC50
[6] = Influenza A virus, PR/8, MDCK, MDCK cells infected with A/PR/8/34, replication of influenza virus (viral RNA, bDNA), class symbols, read-out: EC50 (mean all)
[7] = Influenza A virus, PR/8, mean all, replication of A/PR/8/34 influenza virus (bDNA assay), read-out: EC50
[8] = MDCK cells infected with A/PR/8/34, replication of influenza virus (viral RNA, bDNA), class symbols, read-out: EC50 (mean all)

Row | SMILES | EC50 [1, 6] [µM] | other results
1 | CCC1(O)CCCC(Nc2nc(-c3c[nH]c4ncc(Cl)cc34)ncc2F)C1 (centres unmarked) [Compound 626] | – | EC50 [1, 3]: < 5 µM; IC50 ([2]; CPE assay, A/PR/8/34 infected MDCK cells, class symbols, read-out: IC50 (mean all)): < 5 µM
2 | O=C(c1ccc2c(c1)OCC2)N1CCC[C@H](CNc2nc(-c3c[nH]c4ncc(Cl)cc34)ncc2F)C1 [Compound 145, (R)-(3-((2-(5-chloro-1H-pyrrolo[2,3-b]pyridin-3-yl)-5-fluoropyrimidin-4-ylamino)methyl)piperidin-1-yl)(2,3-dihydrobenzofuran-6-yl)methanone] | – | EC50 [1, 4]: < 5 µM; IC50 ([2]; MDCK cells infected with A/PR/8/34, cell protection (CPE), read-out: IC50 (mean all)): < 5 µM
3 | O=C(C1CCC1)N1CCC[C@H](Nc2nc(-c3c[nH]c4ncc(Cl)cc34)ncc2F)C1 [Compound 395] | – | EC50 ([1]; Influenza A virus, PR/8, MDCK, mean all, A/PR/8/34 influenza virus in MDCK cells, bDNA assay, read-out: EC50): < 5 µM; IC50 [2, 5]: < 5 µM
4 | COCCC(=O)N1CCC(F)(F)CC1CNc1nc(-c2c[nH]c3ncc(Cl)cc23)ncc1F (centres unmarked) [Compound 584, 1-(2-((2-(5-chloro-1H-pyrrolo[2,3-b]pyridin-3-yl)-5-fluoropyrimidin-4-ylamino)methyl)-4,4-difluoropiperidin-1-yl)-3-methoxypropan-1-one] | < 5 | –
5 | CC(C(N)=O)N1CCCC(Nc2nc(-c3c[nH]c4ncc(Cl)cc34)ncc2F)C1 [Compound 583, 2-((S)-3-((2-(5-chloro-1H-pyrrolo[2,3-b]pyridin-3-yl)-5-fluoropyrimidin-4-ylamino)piperidin-1-yl)propanamide] | < 5 | –
6 | COC(=O)[C@H]1CCCC[C@@H]1Nc1nc(-c2c[nH]c3ncc(Cl)cc23)ncc1F [Compound 575, (1S,2S)-methyl 2-(2-(5-chloro-1H-pyrrolo[2,3-b]pyridin-3-yl)-5-fluoropyrimidin-4-ylamino)cyclohexanecarboxylate] | < 5 | –
7 | C[C@@]1(C(N)=O)CCC[C@H](Nc2nc(-c3c[nH]c4ncc(Cl)cc34)ncc2F)C1 [Compound 924, (1R,3S)-3-[[2-(5-chloro-1H-pyrrolo[2,3-b]pyridin-3-yl)-5-fluoro-pyrimidin-4-yl]amino]-1-methyl-cyclohexanecarboxamide] | – | EC50 [1, 7]: < 5 µM
8 | Fc1cnc(-c2c[nH]c3ncc(Cl)cc23)nc1N[C@H]1CCCN(CC(F)(F)F)C1 [Compound 668, (S)-2-(5-chloro-1H-pyrrolo[2,3-b]pyridin-3-yl)-5-fluoro-N-(1-(2,2,2-trifluoroethyl)piperidin-3-yl)pyrimidin-4-amine] | – | EC50 [1, 3]: < 5 µM
9 | NC(=O)CN[C@@H]1CCC[C@H](Nc2nc(-c3c[nH]c4ncc(Cl)cc34)ncc2F)C1 [Compound 593] | < 5 | –
10 | CC(C)OCC(O)CN1CCCC(Nc2nc(-c3c[nH]c4ncc(Cl)cc34)ncc2F)C1 [Compound 551, 1-((S)-3-((2-(5-chloro-1H-pyrrolo[2,3-b]pyridin-3-yl)-5-fluoropyrimidin-4-ylamino)piperidin-1-yl)-3-isopropoxypropan-2-ol] | < 5 | –
11 | C[C@@]1(C(=O)O)CCCC[C@H]1Nc1nc(-c2c[nH]c3ncc(Cl)cc23)ncc1F (stereo in doubt) [Compound 582, Trans-2-(2-(5-chloro-1H-pyrrolo[2,3-b]pyridin-3-yl)-5-fluoropyrimidin-4-ylamino)-1-methylcyclohexanecarboxylic acid] | < 5 | –
12 | CC(C)(O)CN1CCC[C@H](Nc2nc(-c3c[nH]c4ncc(Cl)cc34)ncc2F)C1 [Compound 546] | < 5 | –
13 | COCCOC(=O)[C@H]1CCCC[C@@H]1Nc1nc(-c2c[nH]c3ncc(Cl)cc23)ncc1F [Compound 574, (1S,2S)-2-methoxyethyl 2-(2-(5-chloro-1H-pyrrolo[2,3-b]pyridin-3-yl)-5-fluoropyrimidin-4-ylamino)cyclohexanecarboxylate] | < 5 | –
14 | N#CCCCN1CCC[C@@H](CNc2nc(-c3c[nH]c4ncc(Cl)cc34)ncc2F)C1 [Compound 666, (S)-4-(3-((2-(5-chloro-1H-pyrrolo[2,3-b]pyridin-3-yl)-5-fluoropyrimidin-4-ylamino)methyl)piperidin-1-yl)butanenitrile] | – | EC50 [1, 3]: > 10 µM
15 | Fc1cnc(-c2c[nH]c3ncc(Cl)cc23)nc1N[C@H]1CCCN(Cc2ncc[nH]2)C1 [Compound 589, (S)—N-(1-((1H-imidazol-2-yl)methyl)piperidin-3-yl)-2-(5-chloro-1H-pyrrolo[2,3-b]pyridin-3-yl)-5-fluoropyrimidin-4-amine] | < 5 | –
16 | Fc1cnc(-c2c[nH]c3ncc(Cl)cc23)nc1N[C@H]1CCCN(CC(F)F)C1 [Compound 1, (S)-2-(5-chloro-1H-pyrrolo[2,3-b]pyridin-3-yl)-N-(1-(2,2-difluoroethyl)piperidin-3-yl)-5-fluoropyrimidin-4-amine] | – | EC50 [1, 4]: < 5 µM
17 | CC(=O)N[C@@H]1CCC[C@H](Nc2nc(-c3c[nH]c4ncc(Cl)cc34)ncc2F)C1 [Compound 547, N-[(1R,3S)-3-[[2-(5-chloro-1H-pyrrolo[2,3-b]pyridin-3-yl)-5-fluoro-pyrimidin-4-yl]amino]cyclohexyl]acetamide] | – | EC50 [1, 8]: < 5 µM
18 | COCCOC(=O)N[C@@H]1CCC[C@H](Nc2nc(-c3c[nH]c4ncc(Cl)cc34)ncc2F)C1 [Compound 592, 2-methoxyethyl N-[(1R,3S)-3-[[2-(5-chloro-1H-pyrrolo[2,3-b]pyridin-3-yl)-5-fluoro-pyrimidin-4-yl]amino]cyclohexyl]carbamate] | < 5 | –

Row | SMILES | EC50 [1, 6] [µM] | other results
19 | NC(=O)[C@@H]1CCC[C@H](Nc2nc(-c3c[nH]c4ncc(Cl)cc34)ncc2F)C1 [Compound 847] | – | EC50 ([1]; mean all, A/PR/8/34 influenza virus replication, bDNA, read-out: EC50): < 5 µM
20 | N#CCCN1CCC[C@@H](CNc2nc(-c3c[nH]c4ncc(Cl)cc34)ncc2F)C1 [Compound 667, (S)-3-(3-((2-(5-chloro-1H-pyrrolo[2,3-b]pyridin-3-yl)-5-fluoropyrimidin-4-ylamino)methyl)piperidin-1-yl)propanenitrile] | – | EC50 [1, 3]: > 10 µM
21 | C[C@]1(C(=O)O)CCC[C@H](Nc2nc(-c3c[nH]c4ncc(Cl)cc34)ncc2F)[C@H]1O (single isomer, unassigned) [Compound 928] | – | EC50 [1, 7]: < 5 µM
22 | CC(C)(C(=O)O)N1CCC[C@H](Nc2nc(-c3c[nH]c4ncc(Cl)cc34)ncc2F)C1 [Compound 590] | > 3.3 | –
23 | CN(C)C(=O)N[C@H]1CCC[C@@H](Nc2nc(-c3c[nH]c4ncc(Cl)cc34)ncc2F)C1 [Compound 549, 3-[(1S,3R)-3-[[2-(5-chloro-1H-pyrrolo[2,3-b]pyridin-3-yl)-5-fluoro-pyrimidin-4-yl]amino]cyclohexyl]-1,1-dimethyl-urea] | < 5 | –
24 | O=C(O)CN1CCC[C@H](Nc2nc(-c3c[nH]c4ncc(Cl)cc34)ncc2F)C1 [Compound 577] | < 5 | –
25 | COCC(O)CN1CC[C@H](C)[C@H](Nc2nc(-c3c[nH]c4ncc(Cl)cc34)ncc2F)C1 (some centres unmarked) [Compound 550] | < 5 | –
26 | COC1CCC[C@H](Nc2nc(-c3c[nH]c4ncc(Cl)cc34)ncc2F)C1 (stereo partly drawn) [Compound 552, 2-(5-chloro-1H-pyrrolo[2,3-b]pyridin-3-yl)-5-fluoro-N-((1S)-3-methoxycyclohexyl)pyrimidin-4-amine] | < 5 | –
27 | COC(=O)N[C@H]1CCC[C@@H](Nc2nc(-c3c[nH]c4ncc(Cl)cc34)ncc2F)C1 [Compound 548, Methyl N-[(1S,3R)-3-[[2-(5-chloro-1H-pyrrolo[2,3-b]pyridin-3-yl)-5-fluoro-pyrimidin-4-yl]amino]cyclohexyl]carbamate] | < 5 | –
28 | CC[C@]1(C(=O)O)CCCC[C@H]1Nc1nc(-c2c[nH]c3ncc(Cl)cc23)ncc1F (relative stereo) [Compound 585, cis-2-(2-(5-chloro-1H-pyrrolo[2,3-b]pyridin-3-yl)-5-fluoropyrimidin-4-ylamino)-1-ethylcyclohexanecarboxylic acid] | – | EC50 ([1]; […], replication of influenza virus (viral RNA, bDNA), class symbols, read-out: EC50 (mean all)): < 5 µM
29 | CC(=O)N[C@@H]1CCC[C@H](Nc2nc(-c3c[nH]c4ncc(Cl)cc34)ncc2F)C1 [Compound 576, N-[(1R,3S)-3-[[2-(5-chloro-1H-pyrrolo[2,3-b]pyridin-3-yl)-5-fluoro-pyrimidin-4-yl]amino]cyclohexyl]acetamide] | < 5 | –
30 | CS(=O)(=O)N[C@@H]1CCCC[C@H]1CNc1nc(-c2c[nH]c3ncc(Cl)cc23)ncc1F (relative stereo) [Compound 557, N-(trans-2-((2-(5-chloro-1H-pyrrolo[2,3-b]pyridin-3-yl)-5-fluoropyrimidin-4-ylamino)methyl)cyclohexyl)methanesulfonamide] | < 5 | –
31 | C[C@@]1(NC(=O)N2CCCC2)CCCC(Nc2nc(-c3c[nH]c4ncc(Cl)cc34)ncc2F)C1 (some centres unmarked) [Compound 926] | – | EC50 [1, 7]: < 5 µM
32 | CC1(O)CCCCCC1Nc1nc(-c2c[nH]c3ncc(Cl)cc23)ncc1F (centres unmarked) [Compound 581] | – | EC50 [1, 8]: < 5 µM
33 | O=C(O)[C@H]1CCCC[C@H]1Nc1nc(-c2c[nH]c3ncc(Cl)cc23)ncc1F [Compound 579, (1S,2R)-2-(2-(5-chloro-1H-pyrrolo[2,3-b]pyridin-3-yl)-5-fluoropyrimidin-4-ylamino)cyclohexanecarboxylic acid] | < 5 | –
34 | CC(C(=O)O)N1CCCC(Nc2nc(-c3c[nH]c4ncc(Cl)cc34)ncc2F)C1 [Compound 573, 2-((S)-3-((2-(5-chloro-1H-pyrrolo[2,3-b]pyridin-3-yl)-5-fluoropyrimidin-4-ylamino)piperidin-1-yl)propanoic acid] | < 5 | –
35 | CCC(=O)N[C@@H]1CCCC[C@@H]1Nc1nc(-c2c[nH]c3ncc(Cl)cc23)ncc1F (relative stereo) [Compound 333, N-[cis-2-[[2-(5-chloro-1H-pyrrolo[2,3-b]pyridin-3-yl)-5-fluoro-pyrimidin-4-yl]amino]cyclohexyl]propanamide] | – | IC50 [2, 5]: 5 to 20 µM
